Experimental data as given in patent US11242345B2, “Sulfonimidoylpurinone compounds and methods of treatment using the same” (Hoffmann-La Roche Inc., priority 2015, dated 2022).
Where two headings read alike, the source gives them in different places. Values belong to the compound of their own block, whether it stands above or below them.

Legend:
[1] = molecular target: hERG channel (Homo sapiens (Human), UniProt Q12809); test: hERG channel inhibition assay (patch-clamp, CHOhERG cells); format: cell-based; conditions: for IC20: human, CHO cells stably expressing hERG
Description: The hERG K^+ channels were cloned in humans and stably expressed in a CHO (Chinese hamster ovary) cell line. CHOhERG cells were used for patch-clamp (voltage-clamp, whole-cell) experiments. Cells were stimulated by a voltage pattern to activate hERG channels and conduct IKhERG currents (rapid delayed outward rectifier potassium current of the hERG channel). […] Thereafter, the test compound was added to the preparation at increasing concentrations. For each concentration, an attempt was made to reach a steady-state effect, usually, this was achieved within 3-10 min at which time the next highest concentration was applied. The amplitude and kinetics of IKhERG are recorded in each concentration of the drug which were compared to the control values (taken as 100%). (references: Redfern W S, Carlsson L, Davis A S, Lynch W G, MacKenzie I, Palethorpe S, Siegl P K, Strang I, Sullivan A T, Wallis R, Camm A J, Hammond T G. 2003; Relationships between preclinical cardiac electrophysiology, clinical QT interval prolongation and torsade de pointes for a broad range of drugs: evidence for a provisional safety margin in drug development. Cardiovasc. Res. 58:32-45, Sanguinetti M C, Tristani-Firouzi M. 2006; hERG potassium channels and cardiac arrhythmia. Nature 440:463-469, Webster R, Leishman D, Walker D. 2002; Towards a drug concentration effect relationship for QT prolongation and torsades de pointes. Curr. Opin. Drug Discov. Devel. 5:116-26).

[2] = molecular target: human TLR7 (Homo sapiens (Human), UniProt Q9NYK1); test: HEK-Blue-hTLR7 cells assay (SEAP reporter); format: cell-based; conditions: 20 hrs
Description: A stable HEK-Blue-hTLR7 cell line was purchased from InvivoGen (Cat. #: hkb-htlr7, San Diego, Calif., USA). These cells were designed for studying the stimulation of human TLR7 by monitoring the activation of NF-κB. […] Therefore the reporter expression was regulated by the NF-κB promoter upon stimulation of human TLR7 for 20 hrs. The cell culture supernatant SEAP reporter activity was determined using QUANTI-Blue™ kit (Cat. #: rep-qbl, Invivogen, San Diego, Ca, USA) at a wavelength of 640 nm, a detection medium that turns purple or blue in the presence of alkaline phosphatase.
HEK-Blue-hTLR7 cells were incubated at a density of 250,000-450,000 cells/mL in a volume of 180 μL in a 96-well plate in Dulbecco's Modified Eagle's medium (DMEM) containing 4.5 g/L glucose, 50 U/mL penicillin, […], […], 2 mM L-glutamine, 10% (V/V) heat-inactivated fetal bovine serum for 24 hrs. Then the HEK-Blue-hTLR-7 cells were incubated with addition of 20 μL test compound in a serial dilution in the presence of final DMSO at 1% and perform incubation under 37° C. in a CO2 incubator for 20 hrs. Then 20 μL of the supernatant from each well was incubated with […] Quanti-blue substrate solution at 37° C. for 2 hrs and the absorbance was read at 620-655 nm using a spectrophotometer. The signalling pathway that TLR7 activation leads to downstream NF-κB activation has been widely accepted, and therefore similar reporter assay was also widely used for evaluating TLR7 agonist (Tsuneyasu Kaisho and Takashi Tanaka, Trends in Immunology, Volume 29, Issue 7, July 2008, […]; Hiroaki Hemmi et al, Nature Immunology 3, 196-200 (2002)).

[3] = tested on: CYP3A4; test: Cytochrome P450 induction screening assay, mRNA induction in human cryopreserved hepatocytes; format: in vitro ADME; conditions: 24 hours
From the text: Induction of cytochrome P450 enzymes is associated with an increased prevalence of clinical drug-drug interactions. The clinical consequences of induction may be therapeutic failure caused by a decreased systemic exposure of the drug itself or a co-administered therapy, or toxicity as a result of increased bioactivation. Cytochrome P450 (CYP450) induction assay has been used to understand the potential drug-drug interaction liabilities in drug discovery stage. Human cryopreserved hepatocytes (Life Technologies, Carlsbad, USA) were thawed and cultured in collagen I coated 96-well plates with a density of 52,000 cells/well. After attachment, hepatocyte maintenance medium (HMM; Lonza, Switzerland) was changed after cells were pre-cultured overnight. […] Medium change was then performed and cells were exposed for 24 hours to test compounds, positive inducer compounds, or vehicle (0.1% DMSO), respectively. At the end of the compound exposure period, medium was removed and cells lysed using 100 μL/well MagNA Pure LC RNA isolation tissue lysis buffer (Roche Diagnostics AG, Rotkreuz, Switzerland). […] mRNA isolation was performed using the MagNA Pure 96 system (Roche Diagnostics AG, Rotkreuz, Switzerland) and the respective cellular RNA large volume kit (Roche Diagnostics AG, Rotkreuz, Switzerland) from thawed samples diluted 1:1 with PBS. […] The resulting cDNA was diluted with 40 μL of H2O before using for qRT-PCR. qRT-PCR was performed by using the forward and the reverse primer, the corresponding Universal Probe Library (all from Microsynth, Balgach, Switzerland) and the Taqman Fast advanced master mix (Applied Biosystems), on an ABI 7900 machine (Applied Biosystems). qRT-PCR Ct-values for the respective P450s were put into relation to the Ct-value of RN18S1 (microsynth, Balgach, Switzerland) of the same sample. Doing so, a respective Δct-value was calculated. Using the average of all Δct-values for the vehicle control samples, a ΔΔct-value was calculated for each sample (ΔΔct-value(sample)=Δct-value(sample)−average of Δct-value of all vehicle controls). […] The individual fold induction values were then averaged per treatment condition (usually n=3 biological replicates). […] Relative induction (%)=100×(T−V)/(P−V) • T: fold induction of test compound condition • P: fold induction of positive inducer compound • V: fold induction of vehicle controls Results of CYP3A4 induction are given in Table 5.

[4] = molecular target: human TLR8 (Homo sapiens (Human), UniProt Q9NR97); test: HEK-Blue-hTLR8 cells assay (SEAP reporter) and selectivity index; format: cell-based; conditions: 20 hrs, read-out: HEK Blue hTLR-8 EC50
Description: These cells were designed for studying the stimulation of human TLR8 by monitoring the activation of NF-κB. […] Therefore the reporter expression was regulated by the NF-κB promoter upon stimulation of human TLR8 for 20 hrs.
Then the HEK-Blue-hTLR8 cells were incubated with addition of 20 μL test compound in a serial dilution in the presence of final DMSO at 1% and perform incubation under 37° C. in a CO2 incubator for 20 hrs. […] The signalling pathway that TLR8 activation leads to downstream NF-κB activation has been widely accepted, and therefore similar reporter assay was also widely used for evaluating TLR8 agonist (Tsuneyasu Kaisho and Takashi Tanaka, Trends in Immunology, Volume 29, Issue 7, July 2008, […]; Hiroaki Hemmi et al, Nature Immunology 3, 196-200 (2002)).

[5] = Single dose PK after 1 mg/kg intravenous dosing to rat; format: in vivo, Male Wister-Han Rats; conditions: IV 1 mpk
Description: The single dose PK in Male Wister-Han Rats was performed to assess pharmacokinetic properties of tested compounds. Two groups of animals were dosed via bolus intravenous (IV) of the respective compound. Blood samples (approximately 20 μL) were collected via Jugular vein or an alternate site at 5 min, 15 min, 30 min, 1 hr, 2 hr, 4 hr, 7 hr and 24 hr post-dose for IV group. Blood samples were placed into tubes containing EDTA-K2 anticoagulant and centrifuged at 5000 rpm for 6 min at 4° C. to separate plasma from the samples. Following centrifugation, the resulting plasma was transferred to clean tubes for bioanalysis on LC/MS/MS. The pharmacokinetic parameters were calculated using non-compartmental module of WinNonlin® Professional 6.2. […] Therefore, compounds of present invention potentially could lead to less dose frequency and lower dose in clinical application.

[6] = tested on: patients with chronic hepatitis B; conditions: phase Ib; cited from earlier work
[7] = rat, IV 1 mpk; data from WO2016023511; cited from earlier work
[8] = read-out: HEK-Blue-hTLR7 (EC50 (μM))
[9] = male, Wister-Han, plasma, iv, 1 mg/kg

Sequence of hERG channel (Q12809 whole entry): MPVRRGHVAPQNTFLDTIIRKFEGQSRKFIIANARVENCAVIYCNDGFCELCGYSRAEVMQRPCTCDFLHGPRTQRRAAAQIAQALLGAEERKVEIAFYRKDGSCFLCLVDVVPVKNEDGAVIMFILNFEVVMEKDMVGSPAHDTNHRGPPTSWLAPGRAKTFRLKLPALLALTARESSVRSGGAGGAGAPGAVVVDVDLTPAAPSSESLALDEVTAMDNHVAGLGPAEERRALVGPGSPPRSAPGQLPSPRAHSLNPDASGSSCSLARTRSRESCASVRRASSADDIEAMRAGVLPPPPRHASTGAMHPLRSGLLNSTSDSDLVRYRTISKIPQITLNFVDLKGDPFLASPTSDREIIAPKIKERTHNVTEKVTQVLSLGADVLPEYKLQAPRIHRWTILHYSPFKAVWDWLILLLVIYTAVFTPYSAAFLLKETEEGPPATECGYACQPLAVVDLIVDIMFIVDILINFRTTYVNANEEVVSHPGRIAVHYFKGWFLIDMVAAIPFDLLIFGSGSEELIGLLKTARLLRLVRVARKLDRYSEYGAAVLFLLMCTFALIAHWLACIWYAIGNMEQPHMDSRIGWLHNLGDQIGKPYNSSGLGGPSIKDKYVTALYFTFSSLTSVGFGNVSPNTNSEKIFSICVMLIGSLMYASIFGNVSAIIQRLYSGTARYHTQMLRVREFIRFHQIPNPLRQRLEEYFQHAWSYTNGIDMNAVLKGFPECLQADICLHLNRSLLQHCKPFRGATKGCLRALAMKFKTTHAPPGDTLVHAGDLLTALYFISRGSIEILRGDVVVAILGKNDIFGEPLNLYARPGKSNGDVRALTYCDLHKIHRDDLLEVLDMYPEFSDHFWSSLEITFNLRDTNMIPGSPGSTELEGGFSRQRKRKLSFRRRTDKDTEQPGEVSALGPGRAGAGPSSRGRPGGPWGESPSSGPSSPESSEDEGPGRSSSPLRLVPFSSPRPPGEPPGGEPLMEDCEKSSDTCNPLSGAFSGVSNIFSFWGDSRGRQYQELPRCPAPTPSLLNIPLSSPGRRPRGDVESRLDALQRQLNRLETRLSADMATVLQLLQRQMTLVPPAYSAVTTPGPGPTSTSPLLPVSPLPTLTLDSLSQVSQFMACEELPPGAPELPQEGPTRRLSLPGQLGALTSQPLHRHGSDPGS
Sequence of human TLR7 (Q9NYK1 27-1049): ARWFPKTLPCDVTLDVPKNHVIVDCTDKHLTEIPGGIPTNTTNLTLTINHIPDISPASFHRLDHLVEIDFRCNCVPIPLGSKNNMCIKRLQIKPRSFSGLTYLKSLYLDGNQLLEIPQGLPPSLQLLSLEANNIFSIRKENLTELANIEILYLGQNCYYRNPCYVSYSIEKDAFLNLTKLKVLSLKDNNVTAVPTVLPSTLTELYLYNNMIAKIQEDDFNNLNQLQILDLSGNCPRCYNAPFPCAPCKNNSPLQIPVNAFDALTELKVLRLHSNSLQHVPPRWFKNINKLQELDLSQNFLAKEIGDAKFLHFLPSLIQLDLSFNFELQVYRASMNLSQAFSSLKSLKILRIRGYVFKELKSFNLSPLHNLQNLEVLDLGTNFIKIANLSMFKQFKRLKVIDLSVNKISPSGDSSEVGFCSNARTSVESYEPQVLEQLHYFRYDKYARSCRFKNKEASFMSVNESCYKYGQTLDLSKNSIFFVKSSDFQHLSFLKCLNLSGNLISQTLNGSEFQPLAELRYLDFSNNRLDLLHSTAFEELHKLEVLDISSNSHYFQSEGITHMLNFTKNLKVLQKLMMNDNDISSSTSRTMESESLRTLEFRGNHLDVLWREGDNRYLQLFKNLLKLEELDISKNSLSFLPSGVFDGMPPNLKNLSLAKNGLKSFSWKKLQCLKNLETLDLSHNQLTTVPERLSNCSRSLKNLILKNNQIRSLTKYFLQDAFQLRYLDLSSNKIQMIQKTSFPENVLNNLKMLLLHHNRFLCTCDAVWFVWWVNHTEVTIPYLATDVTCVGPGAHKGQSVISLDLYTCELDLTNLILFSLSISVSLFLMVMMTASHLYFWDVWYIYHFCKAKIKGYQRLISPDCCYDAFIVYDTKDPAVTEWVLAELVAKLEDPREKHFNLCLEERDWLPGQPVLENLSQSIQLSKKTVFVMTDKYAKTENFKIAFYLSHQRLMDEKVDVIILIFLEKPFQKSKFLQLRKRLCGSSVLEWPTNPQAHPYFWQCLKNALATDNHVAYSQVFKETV
Sequence of human TLR8 (Q9NR97 27-1041): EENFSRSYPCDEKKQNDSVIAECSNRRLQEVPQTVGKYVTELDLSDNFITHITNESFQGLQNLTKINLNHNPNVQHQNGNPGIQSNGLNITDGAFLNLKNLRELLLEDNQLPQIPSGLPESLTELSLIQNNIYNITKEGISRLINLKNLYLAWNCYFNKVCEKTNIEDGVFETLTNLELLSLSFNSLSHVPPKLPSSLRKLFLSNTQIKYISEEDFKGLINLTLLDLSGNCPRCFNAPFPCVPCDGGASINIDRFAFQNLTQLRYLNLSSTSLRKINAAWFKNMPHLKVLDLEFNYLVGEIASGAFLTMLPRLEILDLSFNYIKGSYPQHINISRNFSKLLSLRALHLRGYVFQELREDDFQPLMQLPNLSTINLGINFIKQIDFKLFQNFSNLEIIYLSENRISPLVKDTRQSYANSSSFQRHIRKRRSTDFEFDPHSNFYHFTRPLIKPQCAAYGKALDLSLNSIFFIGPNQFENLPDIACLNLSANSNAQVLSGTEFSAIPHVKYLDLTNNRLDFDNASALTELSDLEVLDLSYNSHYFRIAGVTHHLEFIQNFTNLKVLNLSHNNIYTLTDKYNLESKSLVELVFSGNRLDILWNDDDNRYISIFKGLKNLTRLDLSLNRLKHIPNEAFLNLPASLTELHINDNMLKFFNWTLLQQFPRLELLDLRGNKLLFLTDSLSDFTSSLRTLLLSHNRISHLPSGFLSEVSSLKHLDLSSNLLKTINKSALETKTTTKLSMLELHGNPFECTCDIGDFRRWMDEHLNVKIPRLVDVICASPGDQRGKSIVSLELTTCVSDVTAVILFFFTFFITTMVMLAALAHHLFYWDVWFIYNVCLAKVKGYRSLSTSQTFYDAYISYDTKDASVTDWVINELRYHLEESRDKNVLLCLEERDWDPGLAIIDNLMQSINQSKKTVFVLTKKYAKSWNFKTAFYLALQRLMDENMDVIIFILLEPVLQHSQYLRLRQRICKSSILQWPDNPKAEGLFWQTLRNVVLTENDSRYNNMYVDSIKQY

EC50 [2, 8]: 0.18 µM
SMILES: CS(=N)(=O)c1nc(N)c2[nH]c(=O)n(Cc3ccccc3)c2n1 (single isomer, unassigned) [Example 1-B, 6-Amino-9-benzyl-2-(methylsulfonimidoyl)-7H-purin-8-one]
IC50 [1]: > 20 µM | IC20 [1]: > 10 µM

SMILES: CCCS(=N)(=O)c1nc(N)c2[nH]c(=O)n(Cc3ccccc3)c2n1 (single isomer, unassigned) [Example 4-A, 6-Amino-9-benzyl-2-(propylsulfonimidoyl)-7H-purin-8-one]
Relative induction of Positive control (10 μM Rifampicin) (%) [3]: −0.63%

SMILES: CCCS(=N)(=O)c1nc(N)c2[nH]c(=O)n(Cc3ccccc3)c2n1 (single isomer, unassigned) [Example 4-B, 6-Amino-9-benzyl-2-(propylsulfonimidoyl)-7H-purin-8-one]
Relative induction of Positive control (10 μM Rifampicin) (%) [3]: −0.90% | EC50 ([2]; HEK-Blue-hTLR7 (EC50 (μM))): 0.086 µM

SMILES: CCCS(=N)(=O)c1nc(N)c2[nH]c(=O)n(Cc3ccc(C)cc3)c2n1 (single isomer, unassigned) [Example 29-A, 6-Amino-2-(propylsulfonimidoyl)-9-(p-tolylmethyl)-7H-purin-8-one]
IC50 [1]: > 20 µM | IC20 [1]: > 10 µM | EC50 ([2]; HEK-Blue-hTLR7 (EC50 (μM))): 0.019 µM

SMILES: CCCS(=N)(=O)c1nc(N)c2[nH]c(=O)n(Cc3ccc(C)cc3)c2n1 (single isomer, unassigned) [Example 29-B, 6-Amino-2-(propylsulfonimidoyl)-9-(p-tolylmethyl)-7H-purin-8-one]
IC50 [1]: > 20 µM | EC50 ([2]; HEK-Blue-hTLR7 (EC50 (μM))): 0.022 µM

SMILES: CCS(=N)(=O)c1nc(N)c2[nH]c(=O)n(Cc3ccc(Cl)cc3)c2n1 (single isomer, unassigned) [Example 70-A, 6-Amino-9-[(4-chlorophenyl)methyl]-2-(ethylsulfonimidoyl)-7H-purin-8-one]
Relative induction of Positive control (10 μM Rifampicin) (%) [3]: 0.42% | EC50 [2, 8]: 0.054 µM | EC50 [4]: > 1000 µM | AUC(0-inf) [5, 9]: 1.63 µM·h | C0 [5, 9]: 3050 nM | clearance [5, 9]: 56 mL/min/kg

SMILES: CCS(=N)(=O)c1nc(N)c2[nH]c(=O)n(Cc3ccc(Cl)cc3)c2n1 (single isomer, unassigned) [Example 70-B, 6-Amino-9-[(4-chlorophenyl)methyl]-2-(ethylsulfonimidoyl)-7H-purin-8-one]
Relative induction of Positive control (10 μM Rifampicin) (%) [3]: −0.42% | EC50 [2, 8]: 0.077 µM | C0 [5]: 2780 nM

Relative induction of Positive control (10 μM Rifampicin) (%) [3]: −0.10% | EC50 [2, 8]: 0.134 µM | AUC(0-inf) [5, 9]: 1.18 µM·h | C0 [5, 9]: 1850 nM | clearance [5, 9]: 84.6 mL/min/kg
SMILES: CCS(=N)(=O)c1nc(N)c2[nH]c(=O)n(Cc3ccc(C)cc3)c2n1 (single isomer, unassigned) [Example 71-A, 6-Amino-2-(ethylsulfonimidoyl)-9-(p-tolylmethyl)-7H-purin-8-one]
IC50 [1]: > 20 µM | IC20 [1]: > 10 µM

EC50 [2, 8]: 0.087 µM
SMILES: CCS(=N)(=O)c1nc(N)c2[nH]c(=O)n(Cc3ccc(C)cc3)c2n1 (single isomer, unassigned) [Example 71-B, 6-Amino-2-(ethylsulfonimidoyl)-9-(p-tolylmethyl)-7H-purin-8-one]

Relative induction of Positive control (10 μM Rifampicin) (%) [3]: −0.72%
SMILES: CCCS(=N)(=O)c1nc(N)c2[nH]c(=O)n(Cc3ccc(F)cc3)c2n1 (stereo not drawn) [Example 24, 6-Amino-9-[(4-fluorophenyl)methyl]-2-(propylsulfonimidoyl)-7H-purin-8-one]

C0 [5]: 534 nM
SMILES: CS(=O)(=O)c1nc(N)c2[nH]c(=O)n(Cc3ccccc3)c2n1 [Example S-1, reference compound]

SMILES: CCCCOc1nc(N)c2c(n1)N(Cc1cccc(CN3CCCC3)c1)CC(=O)N2 [GS-9620]
ISG15 mRNA induction [6]: dose-dependent ISG15 mRNA induction | Safety and tolerability [6]: safe, well tolerated | C0 [7]: 220 nM
